Measurements: ChEMBL document CHEMBL5705888, “Substrate specificity and inhibitors of LRRK2, a protein kinase mutated in Parkinson's disease” (Biochem J, 2009)

Experiments:
[1] = molecular target: T1, Mitogen-activated protein kinase 15 (Homo sapiens) (UniProt Q8TD08); assay: Inhibition of ERK8 (unknown origin) at 1 uM incubated for 30 mins in presence of [gamma-33P]ATP by multidrop micro reagent based assay relative to control; values are per cent of control
T1 sequence (whole entry): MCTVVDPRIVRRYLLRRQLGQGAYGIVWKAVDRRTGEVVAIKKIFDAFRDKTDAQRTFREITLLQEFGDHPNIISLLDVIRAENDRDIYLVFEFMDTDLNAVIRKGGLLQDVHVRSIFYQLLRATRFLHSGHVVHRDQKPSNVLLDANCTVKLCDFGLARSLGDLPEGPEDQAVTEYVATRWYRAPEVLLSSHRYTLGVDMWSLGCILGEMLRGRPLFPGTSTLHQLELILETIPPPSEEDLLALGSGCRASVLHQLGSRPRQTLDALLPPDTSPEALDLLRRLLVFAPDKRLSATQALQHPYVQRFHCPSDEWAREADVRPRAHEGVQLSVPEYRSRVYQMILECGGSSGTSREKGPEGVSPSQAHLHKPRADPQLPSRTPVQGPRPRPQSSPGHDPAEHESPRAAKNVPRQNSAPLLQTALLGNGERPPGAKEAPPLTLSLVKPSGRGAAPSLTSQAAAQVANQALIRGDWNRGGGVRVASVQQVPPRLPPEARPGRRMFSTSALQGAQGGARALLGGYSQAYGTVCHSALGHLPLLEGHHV

[2] = molecular target: T2, Serine/threonine-protein kinase BRSK2 (Homo sapiens) (UniProt Q8IWQ3); assay: Inhibition of BRSK2 (unknown origin) at 1 uM incubated for 30 mins in presence of [gamma-33P]ATP by multidrop micro reagent based assay relative to control; values are per cent of control
T2 sequence (whole entry): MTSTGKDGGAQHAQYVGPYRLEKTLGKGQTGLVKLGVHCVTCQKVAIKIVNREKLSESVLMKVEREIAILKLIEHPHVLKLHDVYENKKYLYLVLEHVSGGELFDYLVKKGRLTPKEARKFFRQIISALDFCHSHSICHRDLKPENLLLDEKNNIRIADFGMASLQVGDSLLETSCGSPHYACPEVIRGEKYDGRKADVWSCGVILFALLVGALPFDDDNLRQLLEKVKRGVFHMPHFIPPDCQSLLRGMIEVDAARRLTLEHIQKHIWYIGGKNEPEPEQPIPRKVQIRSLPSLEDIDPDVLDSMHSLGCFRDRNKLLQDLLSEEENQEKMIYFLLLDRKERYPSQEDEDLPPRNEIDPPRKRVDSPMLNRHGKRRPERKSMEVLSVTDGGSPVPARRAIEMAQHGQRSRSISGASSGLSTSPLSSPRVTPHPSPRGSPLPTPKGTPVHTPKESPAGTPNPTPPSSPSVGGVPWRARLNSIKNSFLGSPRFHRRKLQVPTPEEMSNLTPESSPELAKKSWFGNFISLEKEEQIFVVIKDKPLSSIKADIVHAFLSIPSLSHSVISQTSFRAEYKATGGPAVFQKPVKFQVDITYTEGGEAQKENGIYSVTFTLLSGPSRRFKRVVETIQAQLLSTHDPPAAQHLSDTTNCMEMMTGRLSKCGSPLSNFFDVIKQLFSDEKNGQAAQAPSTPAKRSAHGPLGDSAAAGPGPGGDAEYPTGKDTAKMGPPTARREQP

Homo sapiens = species: Homo sapiens; assay: Inhibition of PHK (unknown origin) at 10 uM incubated for 30 mins in presence of [gamma-33P]ATP by multidrop micro reagent based assay relative to control; values are per cent of control
[3] = molecular target: Receptor tyrosine-protein kinase erbB-4 (Homo sapiens) (UniProt Q15303); assay: Inhibition of HER4 (unknown origin) at 10 uM incubated for 30 mins in presence of [gamma-33P]ATP by multidrop micro reagent based assay relative to control; values are per cent of control
Chain of Receptor tyrosine-protein kinase erbB-4 (Homo sapiens) (Q15303 whole entry): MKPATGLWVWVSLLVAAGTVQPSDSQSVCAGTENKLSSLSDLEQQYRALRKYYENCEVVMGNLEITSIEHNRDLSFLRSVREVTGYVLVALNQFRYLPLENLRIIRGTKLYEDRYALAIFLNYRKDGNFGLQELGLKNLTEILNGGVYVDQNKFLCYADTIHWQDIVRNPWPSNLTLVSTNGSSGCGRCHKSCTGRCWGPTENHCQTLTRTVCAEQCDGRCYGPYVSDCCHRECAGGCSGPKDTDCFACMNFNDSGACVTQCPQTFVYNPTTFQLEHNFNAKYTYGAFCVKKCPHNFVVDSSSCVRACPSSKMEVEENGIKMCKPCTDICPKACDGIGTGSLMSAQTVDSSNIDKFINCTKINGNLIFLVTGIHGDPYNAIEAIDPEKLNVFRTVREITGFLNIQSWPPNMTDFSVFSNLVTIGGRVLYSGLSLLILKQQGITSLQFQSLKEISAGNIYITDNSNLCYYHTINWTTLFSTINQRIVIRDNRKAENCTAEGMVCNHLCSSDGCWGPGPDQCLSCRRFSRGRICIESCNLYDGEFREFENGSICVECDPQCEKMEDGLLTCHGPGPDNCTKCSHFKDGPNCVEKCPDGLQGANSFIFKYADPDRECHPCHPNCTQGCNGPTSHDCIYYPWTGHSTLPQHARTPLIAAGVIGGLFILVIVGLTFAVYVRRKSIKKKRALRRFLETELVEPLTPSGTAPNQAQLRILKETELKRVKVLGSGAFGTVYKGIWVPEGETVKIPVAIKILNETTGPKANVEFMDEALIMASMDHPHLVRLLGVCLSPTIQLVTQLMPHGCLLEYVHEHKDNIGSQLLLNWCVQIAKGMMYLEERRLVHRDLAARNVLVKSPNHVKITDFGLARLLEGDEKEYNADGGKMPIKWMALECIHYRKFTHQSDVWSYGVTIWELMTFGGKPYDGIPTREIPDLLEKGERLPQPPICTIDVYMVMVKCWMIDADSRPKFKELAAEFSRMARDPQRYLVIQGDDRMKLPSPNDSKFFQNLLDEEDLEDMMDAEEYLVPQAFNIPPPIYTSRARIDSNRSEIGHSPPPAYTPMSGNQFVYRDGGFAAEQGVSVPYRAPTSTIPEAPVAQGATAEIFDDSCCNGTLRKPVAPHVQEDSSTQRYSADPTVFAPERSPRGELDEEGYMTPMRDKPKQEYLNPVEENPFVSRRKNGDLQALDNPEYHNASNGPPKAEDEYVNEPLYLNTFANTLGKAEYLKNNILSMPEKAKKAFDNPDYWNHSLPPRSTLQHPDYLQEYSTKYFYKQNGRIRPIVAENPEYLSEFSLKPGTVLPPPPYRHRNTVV

[4] = molecular target: Serine/threonine-protein kinase pim-1 (Homo sapiens) (UniProt P11309); assay: Inhibition of PIM1 (unknown origin) at 10 uM incubated for 30 mins in presence of [gamma-33P]ATP by multidrop micro reagent based assay relative to control; values are per cent of control
Chain of Serine/threonine-protein kinase pim-1 (Homo sapiens) (P11309 whole entry, looked up): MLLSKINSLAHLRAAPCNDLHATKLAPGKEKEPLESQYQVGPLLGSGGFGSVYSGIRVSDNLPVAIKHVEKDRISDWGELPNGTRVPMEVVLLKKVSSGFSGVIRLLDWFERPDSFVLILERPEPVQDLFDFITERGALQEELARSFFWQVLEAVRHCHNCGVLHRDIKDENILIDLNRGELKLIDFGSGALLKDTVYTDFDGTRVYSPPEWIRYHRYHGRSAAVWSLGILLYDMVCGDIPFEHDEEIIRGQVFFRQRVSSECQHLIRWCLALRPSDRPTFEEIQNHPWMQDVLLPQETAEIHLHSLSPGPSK

[5] = molecular target: Serine/threonine-protein kinase pim-2 (Homo sapiens) (UniProt Q9P1W9); assay: Inhibition of PIM2 (unknown origin) at 10 uM incubated for 30 mins in presence of [gamma-33P]ATP by multidrop micro reagent based assay relative to control; values are per cent of control
Chain of Serine/threonine-protein kinase pim-2 (Homo sapiens) (Q9P1W9 whole entry, looked up): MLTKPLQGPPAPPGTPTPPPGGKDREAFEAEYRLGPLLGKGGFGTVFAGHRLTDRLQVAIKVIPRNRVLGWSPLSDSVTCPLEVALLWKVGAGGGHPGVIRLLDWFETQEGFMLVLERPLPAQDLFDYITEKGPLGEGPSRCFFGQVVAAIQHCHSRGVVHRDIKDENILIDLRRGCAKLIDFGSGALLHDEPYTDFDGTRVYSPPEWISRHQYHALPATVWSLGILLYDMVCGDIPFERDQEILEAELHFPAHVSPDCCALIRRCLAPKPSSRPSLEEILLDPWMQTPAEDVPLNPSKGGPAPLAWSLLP

[6] = molecular target: Proto-oncogene tyrosine-protein kinase Src (Homo sapiens) (UniProt P12931); assay: Inhibition of Src (unknown origin) at 10 uM incubated for 30 mins in presence of [gamma-33P]ATP by multidrop micro reagent based assay relative to control; values are per cent of control
Chain of Proto-oncogene tyrosine-protein kinase Src (Homo sapiens) (P12931 2-536 limits assumed): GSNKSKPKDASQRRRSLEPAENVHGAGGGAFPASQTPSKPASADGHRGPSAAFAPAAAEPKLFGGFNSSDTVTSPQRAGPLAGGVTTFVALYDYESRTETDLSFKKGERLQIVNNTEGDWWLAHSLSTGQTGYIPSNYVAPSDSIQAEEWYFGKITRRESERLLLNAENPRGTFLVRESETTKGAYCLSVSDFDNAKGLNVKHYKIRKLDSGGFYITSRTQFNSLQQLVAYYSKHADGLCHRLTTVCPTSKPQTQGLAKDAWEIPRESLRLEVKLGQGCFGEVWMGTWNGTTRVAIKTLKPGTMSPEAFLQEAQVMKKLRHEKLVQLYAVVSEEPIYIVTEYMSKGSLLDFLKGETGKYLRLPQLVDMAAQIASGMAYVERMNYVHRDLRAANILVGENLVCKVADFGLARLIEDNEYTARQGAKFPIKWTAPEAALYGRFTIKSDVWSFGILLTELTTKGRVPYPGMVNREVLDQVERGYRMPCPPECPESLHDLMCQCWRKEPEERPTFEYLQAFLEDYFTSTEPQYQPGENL

[7] = molecular target: Tyrosine-protein kinase Yes (Homo sapiens) (UniProt P07947); assay: Inhibition of YES1 (unknown origin) at 10 uM incubated for 30 mins in presence of [gamma-33P]ATP by multidrop micro reagent based assay relative to control; values are per cent of control
Chain of Tyrosine-protein kinase Yes (Homo sapiens) (P07947 2-543 limits assumed): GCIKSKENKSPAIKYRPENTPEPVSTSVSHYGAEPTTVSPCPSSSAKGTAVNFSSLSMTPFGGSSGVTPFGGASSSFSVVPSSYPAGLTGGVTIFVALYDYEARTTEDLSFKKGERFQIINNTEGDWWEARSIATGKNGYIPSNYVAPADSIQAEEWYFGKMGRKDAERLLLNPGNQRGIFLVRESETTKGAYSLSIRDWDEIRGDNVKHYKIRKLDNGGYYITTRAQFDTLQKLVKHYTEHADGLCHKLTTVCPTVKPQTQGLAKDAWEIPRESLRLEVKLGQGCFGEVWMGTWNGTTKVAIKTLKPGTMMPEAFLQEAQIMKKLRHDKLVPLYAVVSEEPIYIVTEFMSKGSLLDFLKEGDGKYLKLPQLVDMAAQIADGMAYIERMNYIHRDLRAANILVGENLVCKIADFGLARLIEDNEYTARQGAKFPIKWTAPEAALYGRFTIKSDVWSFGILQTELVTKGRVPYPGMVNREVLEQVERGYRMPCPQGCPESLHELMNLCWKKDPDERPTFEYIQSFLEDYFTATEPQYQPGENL

[8] = molecular target: Serine/threonine-protein kinase PAK 5 (Homo sapiens) (UniProt Q9P286); assay: Inhibition of PAK5 (unknown origin) at 10 uM incubated for 30 mins in presence of [gamma-33P]ATP by multidrop micro reagent based assay relative to control; values are per cent of control
Chain of Serine/threonine-protein kinase PAK 5 (Homo sapiens) (Q9P286 whole entry, looked up): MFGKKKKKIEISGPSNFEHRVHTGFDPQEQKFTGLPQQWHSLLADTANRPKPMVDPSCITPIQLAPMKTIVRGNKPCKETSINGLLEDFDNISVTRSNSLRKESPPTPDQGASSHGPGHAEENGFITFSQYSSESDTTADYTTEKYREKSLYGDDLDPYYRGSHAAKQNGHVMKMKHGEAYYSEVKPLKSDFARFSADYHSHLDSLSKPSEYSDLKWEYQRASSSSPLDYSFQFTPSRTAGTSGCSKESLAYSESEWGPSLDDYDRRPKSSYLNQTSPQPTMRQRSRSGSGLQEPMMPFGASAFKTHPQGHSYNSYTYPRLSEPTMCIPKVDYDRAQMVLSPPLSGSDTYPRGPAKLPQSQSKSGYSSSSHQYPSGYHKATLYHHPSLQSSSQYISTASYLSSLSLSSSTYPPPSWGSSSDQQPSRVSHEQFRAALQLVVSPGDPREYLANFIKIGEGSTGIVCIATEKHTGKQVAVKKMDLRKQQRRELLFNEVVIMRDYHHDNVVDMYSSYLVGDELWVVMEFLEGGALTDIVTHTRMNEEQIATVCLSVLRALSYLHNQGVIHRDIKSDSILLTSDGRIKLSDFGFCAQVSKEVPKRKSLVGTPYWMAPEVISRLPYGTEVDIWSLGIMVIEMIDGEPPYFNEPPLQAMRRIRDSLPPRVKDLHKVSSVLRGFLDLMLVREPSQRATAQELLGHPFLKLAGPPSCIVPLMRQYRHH

[9] = molecular target: T3, MAP kinase-activated protein kinase 5 (Homo sapiens) (UniProt Q8IW41); assay: Inhibition of PRAK (unknown origin) at 1 uM incubated for 30 mins in presence of [gamma-33P]ATP by multidrop micro reagent based assay relative to control; values are per cent of control
T3 sequence (whole entry): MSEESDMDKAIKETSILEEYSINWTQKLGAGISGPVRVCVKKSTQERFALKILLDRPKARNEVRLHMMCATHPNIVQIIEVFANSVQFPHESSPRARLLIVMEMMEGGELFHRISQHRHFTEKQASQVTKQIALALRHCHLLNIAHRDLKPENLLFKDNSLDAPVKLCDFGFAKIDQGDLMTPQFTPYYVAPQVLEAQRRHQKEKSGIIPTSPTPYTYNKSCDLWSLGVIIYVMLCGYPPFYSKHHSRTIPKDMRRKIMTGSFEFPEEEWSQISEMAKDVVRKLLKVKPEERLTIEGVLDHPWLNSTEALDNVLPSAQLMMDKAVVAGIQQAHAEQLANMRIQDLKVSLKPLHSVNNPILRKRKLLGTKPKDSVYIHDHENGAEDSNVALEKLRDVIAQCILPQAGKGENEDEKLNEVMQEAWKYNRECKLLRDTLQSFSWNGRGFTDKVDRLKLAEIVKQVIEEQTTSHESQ

Structure (SMILES)	residual activity [1] [%]	residual activity [2] [%]	residual activity (Homo sapiens) [%]	residual activity [3] [%]	residual activity [4] [%]	residual activity [5] [%]	residual activity [6] [%]	residual activity [7] [%]	residual activity [8] [%]	residual activity [9] [%]
CCn1c(-c2nonc2N)nc2cnc(Oc3cccc(NC(=O)c4ccc(OCCN5CCOCC5)cc4)c3)cc21 [GSK-269962A]	27	–	–	–	–	–	–	–	–	–
Cc1cncc2cccc(S(=O)(=O)N3CCCNC[C@@H]3C)c12	–	17	–	–	–	–	–	–	–	–
O=S(=O)(c1cccc2cnccc12)N1CCCNCC1 [FASUDIL]	–	–	46	129	84	111	120	136	112	–
C[C@@H](N)[C@H]1CC[C@H](C(=O)Nc2ccncc2)CC1	–	–	79	69	94	102	90	96	101	–
CC1=C(C(=O)Nc2cc3cn[nH]c3cc2F)C(c2ccc(C(F)(F)F)cc2)CC(=O)N1 (stereo not given)	95	91	–	–	–	–	–	–	–	92
CCN(CC)CCNC(=O)c1c(C)[nH]c(/C=C2\C(=O)Nc3ccc(F)cc32)c1C	–	–	–	–	–	–	–	–	–	75
